What was measured:
caco-2 cell tissue = experiment: Permeation rate of tracer/test substances through caco-2 cell monolayers (Transwell) with polymer added apically
Description: (§1) This cell line forms on polycarbonate membranes a tissue assemblage which is very similar in appearance and protein composition to small intestinal […]. In the Transwell system (from Costar, Bodenheim, Germany), this artificial endothelial tissue separates two chambers, which are filled with medium, into the apical and the basolateral compartment. This design allows the permeation of a substance through the caco-2 tissue layer to be determined. […] An improvement in permeability is indicated by the reversible opening of the tight junctions.
(§2) Caco-2 cells were cultivated in DMEM (Dulbeccos Modified Eagle's Medium, from Gibco BRL, Eggenstein, Germany) with 10% FCS (fetal calf serum), 1% L-glutamine and 4.5 mg/ml glucose at 37° C. with 5% CO2 and 95% relative humidity. After trypsinization, the cells were spread at a density of 3×10^5 cells/cm^2 on transwell polycarbonate filters. Cells between the 30th and 50th passage were used to form monolayers. The monolayers were employed in the experiment 15-21 days (medium change every three days) after spreading of the cells.
(§3) Before the experiment, the caco-2 cell tissue was washed in the Transwell filter inserts with PBS (phosphate buffer saline). Then the apical compartment was filled with EBSS (Earl's buffered salt solution, pH 6) and the basolateral compartment was filled with DMEM. After addition of the polymer to be tested, which had been neutralized to pH 7, [Kollicoat® MAE 30D (ethyl acrylate/methacrylic acid 1:1, BASF), Eudragit® L100 (methacrylic acid/methyl methacrylate 1:1, Röhm), Eudragit® S100 (methacrylic acid/methyl methacrylate 1:2, Röhm)] in a concentration of 0.5-3% by weight and of the tracer substance into the apical compartment, samples were taken after 24 hours, and the permeation rate of the tracer substance was determined.
(§4) The experiments were analyzed by fluorescence spectrophotometry (Spex Fluorolog 1680: excitation wavelength: 488 nm, emission wavelength: 513 nm), and in the case of C22H32N6O4 by HPLC (column material: Vidac C-18; mobile phase: water/acetonitrile/0.1% trifluoroacetic acid; detection: 240 nm), the experimental results are compiled in Table 1. Measurements which were not done have been indicated by “−”.

in vitro = conditions: human, Caco-2, pH 6
Description: as §1, §2, §3, §4

Structure (SMILES)	Permeation rate (caco-2 cell tissue; Control (no polymer), caco-2 monolayer, apical EBSS pH 6, samples after 24 hours)	Permeation rate (caco-2 cell tissue; with Eudragit L 100 2.0% by weight (neutralized to pH 7) apical, 24 hours)	Permeation rate (caco-2 cell tissue; with Eudragit S 100 2.0% by weight (neutralized to pH 7) apical, 24 hours)	Permeation rate (caco-2 cell tissue; with Kollicoat MAE 30 D 0.5% by weight (neutralized to pH 7) apical, 24 hours)	Permeation rate (caco-2 cell tissue; with Kollicoat MAE 30 D 1.0% by weight (neutralized to pH 7) apical, 24 hours)	Permeation rate (caco-2 cell tissue; with Kollicoat MAE 30 D 1.5% by weight (neutralized to pH 7) apical, 24 hours)	Permeation rate (caco-2 cell tissue; human, Caco-2, 24 h, pH 6)	Papp A→B at 24 h (in vitro)
O=C(CCCCCNC(=O)CCCC[C@@H]1SC[C@@H]2NC(=O)N[C@@H]21)NCCCCCNC(=S)Nc1ccc2c(c1)C(=O)OC21c2ccc(O)cc2Oc2cc(O)ccc21 [Fluorescein-biotin, (biotin-amidocaproylamido)-(pentylthioureidyl)-fluorescein]	2.3 (cm/sec) · 10^−8	4.8 (cm/sec) · 10^−8	7.1 (cm/sec) · 10^−8	2.3 (cm/sec) · 10^−8	5.8 (cm/sec) · 10^−8	20 (cm/sec) · 10^−8		
N=C(N)c1ccc(CNC(=O)[C@@H]2CCCN2C(=O)[C@H](NCC(=O)O)C2CCCCC2)cn1 [C22H32N6O4, HOOC—CH2—(D)-Cha-Pro-NH-3-(6-Am)-Pico]							56 (cm/sec) · 10^−8	0.56 ×10⁻⁶ cm/s
